The values below come from patent publication US20090291977A1, “Chromane Derivatives Useful As Acid Pump Antagonists” (priority 2004, published 2009).

For the first assay, the target named is T1, Porcine gastric H+/K+-ATPase (Sus scrofa, UniProt P19156).
T1 construct: The gastric vesicles were collected from interface on 0.25 M sucrose layer containing 7% Ficoll; from tissue; host or cells: mucous membrane of fresh porcine stomachs (gastric vesicles)
T1 sequence (P19156 2-1034 limits assumed): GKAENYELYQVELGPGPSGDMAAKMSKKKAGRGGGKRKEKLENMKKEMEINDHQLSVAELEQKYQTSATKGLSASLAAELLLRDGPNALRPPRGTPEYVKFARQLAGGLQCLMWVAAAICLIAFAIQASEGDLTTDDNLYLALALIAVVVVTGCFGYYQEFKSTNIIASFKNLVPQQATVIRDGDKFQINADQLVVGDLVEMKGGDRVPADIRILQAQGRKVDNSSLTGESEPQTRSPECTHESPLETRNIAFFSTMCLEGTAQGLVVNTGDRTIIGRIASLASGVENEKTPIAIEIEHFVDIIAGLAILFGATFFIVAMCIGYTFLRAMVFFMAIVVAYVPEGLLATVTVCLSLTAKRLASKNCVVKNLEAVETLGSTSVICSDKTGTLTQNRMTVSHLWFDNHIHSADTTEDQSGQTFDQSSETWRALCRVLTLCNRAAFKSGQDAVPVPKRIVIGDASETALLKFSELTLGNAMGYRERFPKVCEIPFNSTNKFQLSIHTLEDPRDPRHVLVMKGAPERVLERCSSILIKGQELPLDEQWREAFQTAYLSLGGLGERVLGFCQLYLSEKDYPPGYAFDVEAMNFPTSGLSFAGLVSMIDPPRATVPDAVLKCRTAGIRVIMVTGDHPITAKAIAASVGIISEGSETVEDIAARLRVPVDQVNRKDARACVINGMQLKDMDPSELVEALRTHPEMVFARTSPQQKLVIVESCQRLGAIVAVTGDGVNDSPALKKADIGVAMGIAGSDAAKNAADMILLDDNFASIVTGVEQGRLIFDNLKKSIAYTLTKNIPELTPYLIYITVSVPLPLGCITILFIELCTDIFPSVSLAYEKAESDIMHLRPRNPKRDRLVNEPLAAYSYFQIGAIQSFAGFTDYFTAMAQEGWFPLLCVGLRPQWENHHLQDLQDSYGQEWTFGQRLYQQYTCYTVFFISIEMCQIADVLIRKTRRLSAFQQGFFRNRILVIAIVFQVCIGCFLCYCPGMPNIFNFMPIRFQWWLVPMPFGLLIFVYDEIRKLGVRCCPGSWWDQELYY
T1 sequence (P18434 whole entry partner): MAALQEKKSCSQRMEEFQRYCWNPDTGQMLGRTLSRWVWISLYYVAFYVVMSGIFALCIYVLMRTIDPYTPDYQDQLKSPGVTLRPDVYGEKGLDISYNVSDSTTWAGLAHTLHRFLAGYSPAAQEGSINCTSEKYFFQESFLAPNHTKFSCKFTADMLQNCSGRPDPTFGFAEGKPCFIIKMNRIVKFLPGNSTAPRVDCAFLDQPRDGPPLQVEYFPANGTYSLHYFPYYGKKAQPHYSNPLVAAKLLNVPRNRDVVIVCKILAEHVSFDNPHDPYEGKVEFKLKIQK
The experiment in a line: Ion-leaky porcine gastric H+/K+-ATPase inhibition. The class given is biochemical. The settings on record: ion-leaky vesicles, 5 mM KCl, pH 6.4, 37° C., 30 minutes. How it is done:
The porcine gastric vesicles for Porcine gastric H^+/K^+-ATPase inhibition assays were prepared from mucous membrane in fresh porcine stomachs by homogenization with a tight-fitted polytetrafluoroethylene (Teflone®) homogenizer in 0.25 M sucrose at 4° C. The crude pellet was removed with centrifugation at 20,000 g for 30 min. Then supernatant was centrifuged at 100,000 g for 30 min. The resulting pellet was re-suspended in 0.25 M sucrose, and then subjected to density gradient centrifugation at 132,000 g for 90 min. The gastric vesicles were collected from interface on 0.25 M sucrose layer containing 7% Ficoll™ PM400(Amersham Biosciences). This procedure was performed in a cold room.
Ion-leaky porcine gastric H^+/K^+-ATPase-inhibition was measured according to the modified method described in Biochemical Pharmacology, 1988, 37, 2231-2236.
The isolated vesicles were lyophilized, and then kept in deep-freezer until use. For enzyme assay, lyophilized vesicles were reconstituted with 3 mM MgSO4 containing 40 mM Bis-tris (pH 6.4 at 37° C.).
Enzyme reaction was performed incubating 5 mM KCl, 3 mM Na2ATP, 3 mM MgSO4 and 1.0 μg of reconstituted vesicles for 30 minutes at 37° C. in a final 60 μl of reaction mixture (40 mM Bis-tris, pH 6.4) with or without the test compound. Enzyme reaction was stopped by adding 10% sodium dodecyl sulphate (SDS). Released inorganic phosphate from ATP was detected by incubation with mixture of 1 part of 35 mM ammonium molybdate tetrahydrate in 15 mM Zinc acetate hydrate and 4 parts of 10% ascorbic acid (pH 5.0), resulting in phosphomolybdate, which has optical density at 750 nm.
By IC50 is commonly meant the concentration needed to halve the response being measured. Molecule `Cc1ccc2c(c1)OCCC2Nc1cc(C(=O)N(C)CCO)cn2c(C)c(C)nc12` (single isomer, unassigned) [Example 16-2, N-(2-Hydroxyethyl)-N,2,3-trimethyl-8-[(7-methyl-3,4-dihydro-2H-chromen-4-yl)amino]imidazo[1,2-a]pyridine-6-carboxamide] gave a 50% inhibitory concentration (IC50) of 100 nM.

`Cc1ccc2c(c1)OCCC2Nc1cc(C(=O)N(C)CCO)cn2c(C)c(C)nc12` (single isomer, unassigned) [Example 16-3, N-(2-Hydroxyethyl)-N,2,3-trimethyl-8-[(7-methyl-3,4-dihydro-2H-chromen-4-yl)amino]imidazo[1,2-a]pyridine-6-carboxamide]: the IC50 was 180 nM.

In turn, `Cc1cccc2c1C(Nc1cc(C(=O)N(C)C)cn3c(C)c(C)nc13)CCO2` (single isomer, unassigned) [Example 17-2, N,N,2,3-Tetramethyl-8-[(5-methyl-3,4-dihydro-2H-chromen-4-yl)amino]imidazo[1,2-a]pyridine-6-carboxamide] had an IC50 of 43 nM.

`Cc1cccc2c1C(Nc1cc(C(=O)N(C)C)cn3c(C)c(C)nc13)CCO2` (single isomer, unassigned) [Example 17-3, N,N,2,3-Tetramethyl-8-[(5-methyl-3,4-dihydro-2H-chromen-4-yl)amino]imidazo[1,2-a]pyridine-6-carboxamide] gave an IC50 of 91 nM.

For the molecule `Cc1nc2c(NC3CCOc4cccc(Cl)c43)cc(C(=O)N(C)C)cn2c1C` (single isomer, unassigned) [Example 18-2, 8-[(5-Chloro-3,4-dihydro-2H-chromen-4-yl)amino]-N,N,2,3-tetramethylimidazo[1,2-a]pyridine-6-carboxamide], the half-maximal inhibitory concentration (IC50) came out at 300 nM.

Regarding `Cc1nc2c(NC3CCOc4cccc(Cl)c43)cc(C(=O)N(C)C)cn2c1C` (single isomer, unassigned) [Example 18-3, 8-[(5-Chloro-3,4-dihydro-2H-chromen-4-yl)amino]-N,N,2,3-tetramethylimidazo[1,2-a]pyridine-6-carboxamide], the IC50 was determined as 240 nM.

Regarding `Cc1nc2c(NC3CCOc4cccc(Cl)c43)cc(C(=O)N(C)CCO)cn2c1C` (single isomer, unassigned) [Example 19-2, 8-[(5-Chloro-3,4-dihydro-2H-chromen-4-yl)amino]-N-(2-hydroxyethyl)-N,2,3-trimethylimidazo[1,2-a]pyridine-6-carboxamide], inhibition was half-maximal at 600 nM (IC50).

Take `Cc1nc2c(NC3CCOc4cccc(Cl)c43)cc(C(=O)N(C)CCO)cn2c1C` (single isomer, unassigned) [Example 19-3, 8-[(5-Chloro-3,4-dihydro-2H-chromen-4-yl)amino]-N-(2-hydroxyethyl)-N,2,3-trimethylimidazo[1,2-a]pyridine-6-carboxamide]: the IC50 worked out at 500 nM.

The molecule `Cc1nc2c(NC3CCOc4ccccc43)cc(C(=O)N(C)C)cn2c1C` (single isomer, unassigned; (+)) [Example 1-3, (+)-8-(3,4-Dihydro-2H-chromen-4-ylamino)-N,N,2,3-tetramethylimidazo[1,2-a]pyridine-6-carboxamide] showed an IC50 of 27.8 nM.

In turn, `Cc1nc2c(NC3CCOc4ccccc43)cc(C(=O)N(C)CCO)cn2c1C` (single isomer, unassigned; (+)) [Example 2-3, (+)-8-(3,4-Dihydro-2H-chromen-4-ylamino)-N-(2-hydroxyethyl)-N,2,3-trimethylimidazo[1,2-a]pyridine-6-carboxamide] yielded an IC50 of 64 nM.

`Cc1nc2c(NC3COCc4ccccc43)cc(C(=O)N(C)C)cn2c1C` (single isomer, unassigned; (+)) [Example 3-3, (+)-8-(3,4-Dihydro-1H-isochromen-4-ylamino)-N,N,2,3-tetramethylimidazo[1,2-a]pyridine-6-carboxamide]: the IC50 was 67.6 nM.

As to `Cc1nc2c(NC3COCc4ccccc43)cc(C(=O)N(C)CCO)cn2c1C` (single isomer, unassigned; (+)) [Example 4-3, (+)-8-(3,4-Dihydro-1H-isochromen-4-ylamino)-N-(2-hydroxyethyl)-N,2,3-trimethylimidazo[1,2-a]pyridine-6-carboxamide], it took 112 nM to reach half-maximal inhibition (IC50).

Molecule `Cc1cccc2c1C(Nc1cc(C(=O)N(C)CCO)cn3c(C)c(C)nc13)CCO2` (single isomer, unassigned; (+)) [Example 5-3, (+)-N-(2-Hydroxyethyl)-N,2,3-trimethyl-8-[(5-methyl-3,4-dihydro-2H-chromen-4-yl)amino]imidazo[1,2-a]pyridine-6-carboxamide] returned an IC50 of 93 nM.

Turning to `Cc1nc2c(NC3CCOc4ccccc43)cc(C(=O)N(C)C)cn2c1C` (single isomer, unassigned; (-)) [Example 1-2, (−)-8-(3,4-Dihydro-2H-chromen-4-ylamino)-N,N,2,3-tetramethylimidazo[1,2-a]pyridine-6-carboxamide], half-maximal inhibition (IC50) required 61.9 nM.

`Cc1nc2c(NC3CCOc4ccccc43)cc(C(=O)N(C)CCO)cn2c1C` (single isomer, unassigned; (-)) [Example 2-2, (−)-8-(3,4-Dihydro-2H-chromen-4-ylamino)-N-(2-hydroxyethyl)-N,2,3-trimethylimidazo[1.2-a]pyridine-6-carboxamide]: the 50% inhibitory concentration (IC50) was determined as 81.1 nM.

Molecule `Cc1nc2c(NC3COCc4ccccc43)cc(C(=O)N(C)C)cn2c1C` (single isomer, unassigned; (-)) [Example 3-2, (−)-8-(3,4-Dihydro-1H-isochromen-4-ylamino)-N,N,2,3-tetramethylimidazo[1,2-a]pyridine-6-carboxamide] gave an IC50 of 125 nM.

As to `Cc1nc2c(NC3COCc4ccccc43)cc(C(=O)N(C)CCO)cn2c1C` (single isomer, unassigned; (-)) [Example 4-2, (−)-8-(3,4-Dihydro-1H-isochromen-4-ylamino)-N-(2-hydroxyethyl)-N,2,3-trimethylimidazo[1,2-a]pyridine-6-carboxamide], the IC50 was found to be 273 nM.

`Cc1cccc2c1C(Nc1cc(C(=O)N(C)CCO)cn3c(C)c(C)nc13)CCO2` (single isomer, unassigned; (-)) [Example 5-2, (−)-N-(2-Hydroxyethyl)-N,2,3-trimethyl-8-[(5-methyl-3,4-dihydro-2H-chromen-4-yl)amino]imidazo[1,2-a]pyridine-6-carboxamide] had an IC50 of 86.2 nM.

Another assay deals with acid secretion in the gastric lumen-perfused rat. The experiment in a line: Inhibition of acid secretion in the gastric lumen-perfused rat. The class given is in vivo. Particulars: Sprague-Dawley rat, pentagastrin-stimulated acid secretion, intravenous bolus or intraduodenal administration. On the procedure: Acid secretion in the gastric lumen-perfused rat was measured according to Watanabe et al. [Watanabe K et al., J. Physiol. (Paris) 2000; 94: 111-116].
Male Sprague-Dawley rats, 8 weeks old, deprived of food for 18 hours before the experiment with free access to water, were anesthetized with urethane (1.4 g/kg, i.p.) and tracheotomized. After a middle abdominal incision, a dual polyethylene cannula was inserted into the forestomach and the stomach was perfused with saline (37° C., pH 5.0) at a rate of 1 ml/min. The acid output in the perfusate was determined at 5 minutes interval by titration with 0.02 M NaOH to pH 5.0. After the determination of basal acid secretion for 30 min, the acid secretion was stimulated by a continuous intravenous infusion of pentagastrin (16 μg/kg/h). The test compounds were administered by an intravenous bolus injection or intraduodenal administration after the stimulated acid secretion reached a plateau phase. The acid secretion was monitored after the administration.
Turning to `Cc1cccc2c1C(Nc1cc(C(=O)N(C)CCO)cn3c(C)c(C)nc13)CCO2` (single isomer, unassigned; (+)) [Example 5-3, (+)-N-(2-Hydroxyethyl)-N,2,3-trimethyl-8-[(5-methyl-3,4-dihydro-2H-chromen-4-yl)amino]imidazo[1,2-a]pyridine-6-carboxamide], the “inhibitory activity (inhibition of acid secretion)” value was “good inhibitory activity”.
